Patent US8178349B2, “Homogeneous neural precursor cells” (Burnham Institute For Medical Research, priority 2005, dated 2012)

Assays:
Format in all cases: cell-based, human
[1] = tested on: NMDA-type glutamate receptors of differentiated hES-NPCs; assay: Whole-cell patch-clamp recording of ligand-gated currents; conditions: for effect on glutamate-evoked currents: voltage clamp, holding potential −60 mV, after 2 to 2.5 weeks in culture, 100 μM D-APV
differentiated hES-NPCs = assay: Whole-cell patch-clamp recording of GABA-evoked currents; conditions: 2.5 weeks in culture
hESCs = assay: Spheroid bodies formation in suspension medium; conditions: addition to the suspension medium (2 mM)
Description: Spheroid bodies formation: the small clusters (10-100 cells) of hESCs were grown in polypropylene dishes (Ted Pella) in Suspension Medium (1:1 ratio of DMEM/F12:neurobasal medium with N2+B27 supplements, 20 ng/ml insulin 20 ng/ml bFGF, 20 ng/ml EGF and 2 mM N-acetyl cysteine (NAC)). The spheres were grown for 4-6 days, with a change in medium every alternate day.

[2] = tested on: glutamate receptors of differentiated hES-NPCs cultures; assay: Calcium imaging; conditions: 4-5 week old cultures; NMDA followed by glutamate, 37° C.
Description: Calcium Imaging. Measurement of intracellular free Ca2+ ([Ca2+]i) in differentiated HNSC cultures was performed using Fura-2-AM or Fluo-3-AM as described earlier (Tenneti et al., J Neurochem 71: 946-59, 1998) with the minor modification. Briefly, ES derived hNPC cells were washed twice with recording medium containing 150 mM NaCl, 3 mM KCl, 2 mM CaCl2, 5 mM glucose, 10 μM glycine, and 10 mM HEPES (pH 7.4) and incubated generally at 37° C. in recording medium containing 30 nM Pluronic F-127 and 5 μM Fluo-3 AM for 30 minor 10 μMFura-2-AM for 60 min (acetoxymethyl esters; Molecular Probes). Cultures were then washed three times with recording medium, followed by settlement at 37° C. for at least 30 min. Cells were invariably used within 1 hr after these procedures for observation. During the experiments, cells were kept in a perfusion chamber on the microscope stage at room temperature (Fluo-3) or 37° C. (Fura-2 experiments). Imaging was done using a Sutter DG-4 fast wavelength switcher coupled to a Zeiss Axiovert microscope with a 20×, 0.5 NA, objective. […] Changes in fluorescence intensity were calculated by dividing the measured fluorescence intensity (F; ratio of 340/380 nm for Fura-2) by the measured average baseline fluorescence intensity (F/F0) Excitation was achieved using standard FITC or Fura-2 filter sets (Chroma technologies).

[3] = tested on: Voltage-gated Na+ currents of differentiated hES-NPCs

SMILES: N[C@H](CCCP(=O)(O)O)C(=O)O [D-APV, D-(−)-2 amino-5-phosphonovaleric acid]
- effect on glutamate-evoked currents [1]: partially blocked
- effect on glutamate-evoked currents ([1]; listed as APV): partially inhibited

SMILES: NCCCC(=O)O [GABA, γ-aminobutyric acid]
- cells with agonist-evoked currents (cells of cells recorded) (differentiated hES-NPCs): 4 of 29

SMILES: CC(=O)N[C@@H](CS)C(=O)O [NAC, N-acetyl cysteine]
- morphology of spheroid bodies (hESCs): healthier morphology of spheroid bodies

SMILES: CN[C@H](CC(=O)O)C(=O)O [NMDA, N-methyl-D-aspartate]
- [Ca2+] response of fura-2-loaded cells [2]: Robust responses

SMILES: NC1=N[C@H](O)[C@H]2[C@H]3O[C@]4(O)O[C@@H]([C@@H](O)[C@@]2(N1)[C@@H]4O)[C@]3(O)CO [TTX, tetrodotoxin]
- effect on fast Na+ currents [3]: reversibly blocked

SMILES: N[C@@H](CCC(=O)O)C(=O)O [glutamate]
- cells that manifest agonist-evoked currents ([1]; after 2 weeks in culture): approximately 30%
- [Ca2+] response of fura-2-loaded cells [2]: Robust responses
